These results are taken from paper PMC8198750, “Synthesis of Novel Halogenated Heterocycles Based on o-Phenylenediamine and Their Interactions with the Catalytic Subunit of Protein Kinase CK2” (Molecules, 2021).

Read-outs that look alike come from different tables or passages of the source.

One series concerns CK2. Conditions: cited from earlier work.
Series [1] has as its target T1, hCK2α (Homo sapiens, UniProt P68400).
T1 construct: made in house
Briefly: nanoDSF thermal shift assay (low-volume differential scanning fluorimetry). Particulars: 10-fold excess of ligand (1:10 protein–ligand), 2.5 μM protein, relative to apo hCK2α, 2% DMSO, pH 8; read-out: ΔTm. The class given is binding. Here is the method: Binding affinities of the newly synthesized compounds towards hCK2α were assessed with the low-volume differential scanning fluorimetry (nanoDSF). The shift of the temperature of thermal denaturation in the presence of 10-fold excess of a particular ligand relative to the apo form of hCK2α (ΔTm) can be used as a semi-qualitative measure of the binding affinity or inhibitory activity.
hCK2α was expressed and purified according to the method described previously. Thermal stability of 1:10 protein–ligand complexes was monitored on Prometheus (Nanotemper Technologies, München, Germany) using PR-C002 Prometheus NT.48 Standard Capillaries using temperature ramp of 20 to 80 °C with 1 °C/min heating rate. Temperature-induced variation in ratio fluorescence intensity at 330 and 350 nm was globally analyzed using the procedure described before. All experiments were performed in 25 mM Tris–HCl (pH 8, 0.5 M NaCl) with 2% (v/v) DMSO. Protein was kept in constant 2.5 μM concentration.

The nature of series [2]: RP-HPLC chromatographic hydrophobicity index. The class given is physicochemical. Conditions: C18, 2:1 methanol:20 mM aqueous ammonium formate pH 8; τ = (Tret − T0)/T0. Here is the method:
RP-HPLC method, a fast and efficient alternative for standard logD determination in octan-1-ol/water system, was used to assess the hydrophobicity of all synthesized compounds. This method has been successfully used in our laboratory for halogenated benzotriazole derivatives, including the evaluation of the effect of hydrophobicity on their binding to the catalytic subunit of protein kinase CK2 [24, 43].
Chromatographic hydrophobicity index (log(τ)) was determined with the reverse phase HPLC (RP-HPLC). Column: Nova-pak® C18 4 μm, 4.6 × 250 mm. Eluent: 2:1 methanol: 20 mM aqueous ammonium formate (pH = 8) (v/v). Flow: 0.7 mL/min. Detector wavelength: 280 nm. The individual retention times (Tret) were converted to a hydrophobicity scale according to the formula τ = (Tret − T0)/T0. where the retention time of unretained solvent (T0) was estimated to 300 s.

In series [3] the target is T1, hCK2α. Briefly: Inhibitory activity against human CK2α (ADP-Glo kinase assay). The class given is biochemical. Conditions: inhibitor 1 nM–1 mM, triplicate. How it is done:
The inhibitory effect of 8 selected compounds was monitored based on the luminescence measured with the SpectraMax iD3 Multi-Mode Microplate Reader (Molecular Devices, San Jose, CA, USA), using the previously described method with the aid of ADP-Glo kinase assay (Promega, Walldorf, Germany). Inhibitor concentration varied in the range of 1 nM–1 mM (see Supplementary Figure S38). Each experiment was repeated in triplicate and IC50 values were further estimated globally using the sigmoidal dose-response equation implemented in Origin 9.4 package (www.originlab.com, upgraded 20.07.27).

The subject of series [4] is epidermoid carcinoma A-431. Briefly: MTT cell viability assay, A-431. The class given is cell-based. Conditions: Homo sapiens, 72 h. The text has this: (§1) The following human cell lines were used in this study: (i) epidermoid carcinoma A-431 (ATCC® CRL-1555), (ii) colorectal carcinoma HCT116 (ATCC® CCL-247), (iii) colorectal carcinoma HCT116p53^−/−, and (iv) normal fibroblasts BJ (ATCC® CRL-2522). The HCT116p53^−/− cell line was a kind gift from professor Bert Vogelstein (John Hopkin’s University, Baltimore, MD, USA). The remaining cell lines were purchased from ATCC (Manassas, VA, USA) or Sigma Aldrich by Merck (Darmstadt, Germany).
(§2) Cells were cultured in Dulbecco’s modified Eagle’s or Roswell Park Memorial Institute (RPMI)-1640 medium supplemented with 10% or 15% fetal bovine serum (Gibco by Thermo Fisher Scientific, Waltham, MA, USA) under standard culture conditions (37 °C, 5% CO2) in a humidified incubator with atmospheric oxygen.
(§3) The viability of cells was assayed by measuring the conversion of MTT (3-(4,5-dimethylthiazol-2-yl)-2,5-diphenyltetrazolium bromide) to the formazan (the rate of this reaction is proportional to the number of surviving cells). Cells were seeded in a 96-well plate at a density of 1500–2500 cells per well, 24 h before treatment. Treatment with tested compounds and cisplatin (0.25–160 µM) was performed for 72 h. MTT stock solution (Sigma-Aldrich) was added at the final concentration 0.5 mg/mL. After 2 h of incubation at 37 °C, water-insoluble formazan was dissolved in a lysis buffer containing 20% SDS, 50% DMF, 2.5% hydrochloric acid, and 2.5% acetic acid. Optical densities were measured at 570 nm using a scanning multi-well spectrophotometer ([…] Detection Platform; Beckman Coulter, Brea, CA, USA).

For the next series, the system named is normal fibroblasts BJ. Briefly: MTT cell viability assay, BJ. The class given is cell-based, human. Particulars: Homo sapiens, Fibroblast; MTT, 72 h.
Excerpt: as §1, §2, §3

In series [5] the test system is colorectal carcinoma HCT116. Briefly: MTT cell viability assay, HCT116. The class given is cell-based. Conditions: Homo sapiens, HCT-116, 72 h, read-out: IC50 HTC116.
Excerpt: as §1, §2, §3

Series [6] concerns colorectal carcinoma HCT116p53−/−. Briefly: MTT cell viability assay, HCT116p53−/−. The class given is cell-based. Conditions: Homo sapiens, 72 h.
Excerpt: as §1, §2, §3

In series [7] the test system is A-431, HCT116, HCT116p53−/−, BJ. Briefly: MTT cell viability, reference cell lines as a whole. Particulars: Homo sapiens; viability tests, cell line not specified. The class given is cell-based.
Excerpt: as §1, §2
The viability of cells was assayed by measuring the conversion of MTT (3-(4,5-dimethylthiazol-2-yl)-2,5-diphenyltetrazolium bromide) to the formazan (the rate of this reaction is proportional to the number of surviving cells). Cells were seeded in a 96-well plate at a density of 1500–2500 cells per well, 24 h before treatment. Treatment with tested compounds and cisplatin (0.25–160 µM) was performed for 72 h. […] Optical densities were measured at 570 nm using a scanning multi-well spectrophotometer ([…] Detection Platform; Beckman Coulter, Brea, CA, USA).

In series [8] the test system is phytohemagglutinin-stimulated normal human lymphocytes. Also noted: method as in PMID 12660022. Conditions: cited from earlier work.
A further series has as its system MCF-7 (breast carcinoma). Details: method as in PMID 12660022. Conditions: cited from earlier work.
In series [9] the test system is PC-3 (prostate carcinoma). Details: method as in PMID 12660022. Particulars: cited from earlier work.
Setting [10] is: read-out: IC50 against CK2 / inhibitory activity.

T1 sequence (P68400 whole entry): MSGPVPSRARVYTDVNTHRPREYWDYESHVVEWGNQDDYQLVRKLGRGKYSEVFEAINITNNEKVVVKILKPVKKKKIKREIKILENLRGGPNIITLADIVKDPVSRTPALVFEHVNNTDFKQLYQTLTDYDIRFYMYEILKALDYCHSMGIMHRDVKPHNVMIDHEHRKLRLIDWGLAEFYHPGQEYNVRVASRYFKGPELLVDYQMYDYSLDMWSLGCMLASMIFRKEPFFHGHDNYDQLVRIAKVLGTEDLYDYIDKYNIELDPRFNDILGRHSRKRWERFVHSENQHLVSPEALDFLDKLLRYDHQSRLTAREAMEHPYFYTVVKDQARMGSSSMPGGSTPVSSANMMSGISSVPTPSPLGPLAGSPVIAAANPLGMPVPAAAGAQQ

With `FC(F)(F)c1nc2c(Br)c(Br)c(Br)cc2[nH]1` [4,5,6-tribrominated], the IC50 with CK2 (setting [10]) was 1.2 µM.

Regarding `Oc1nc2cc(I)c(I)cc2nc1O` [Compound 7e], the ΔTm at 25 µM at hCK2α [1] came to 4.1 ± 0.1 °C. Also, the “log(τ) HPLC-derived hydrophobicity index” value in [2] is −0.117. The IC50 against hCK2α [3] was 2 ± 1 µM; in series [4], 94 ± 14 µM; in the series on normal fibroblasts BJ, 128 ± 13 µM; in series [5] it was 41 ± 4 µM; in series [6] it was 70 ± 10 µM; in [7], ~100 µM.

On to `FC(F)(F)c1nc2c(Br)c(Br)c(Br)c(Br)c2[nH]1` [tetrabrominated], for which the IC50 with CK2 (setting [10]) is 0.6 µM.

Consider `O=c1[nH]c2c(Br)c(Br)c(Br)c(Br)c2[nH]1` [4,5,6,7-tetrabromo-1H-benzo[d]imidazol-2(3H)-one], for which the Ki on CK2 was 0.2 µM. Also, in the series on CK2 (read-out: IC50 CK2), the IC50 was 0.39 µM.

For the compound `FC(F)(F)c1nc2cc(Br)c(Br)cc2[nH]1` [Compound 3d, 5,6-dibromo-2-trifluoromethylo-1H-benzimidazole], the ΔTm at 25 µM on hCK2α [1] was 2.4 ± 0.1 °C. Also, the “log(τ) HPLC-derived hydrophobicity index” value in series [2] is on record as 0.310. Moreover, the IC50 is 15 ± 3 µM against hCK2α [3]; 13 ± 2 µM in series [4]; 55 ± 6 µM in the series on normal fibroblasts BJ; 10 ± 2 µM in [5]; 12 ± 2 µM in [6]; 28 µM in the series with CK2 (setting [10]). Further, the concentration for an effect of 80% (IC80) was 8.7 µM in series [8], < 3 µM in the series with MCF-7 (breast carcinoma) and < 3 µM in series [9].

Consider `OCc1nc2cc(I)c(I)cc2[nH]1` [Compound 4e, 5,6-diiodo-2-hydroxymethylo-1H-benzimidazole], for which, at hCK2α [1], the thermal shift (ΔTm) at 25 µM came to 3.7 ± 0.1 °C. Besides, the “log(τ) HPLC-derived hydrophobicity index” value in [2] was found to be 0.088. Besides, the IC50 against hCK2α [3] was 25 ± 5 µM; in series [4], 39 ± 10 µM; with normal fibroblasts BJ, 15 ± 2 µM; in series [5], 20 ± 2 µM; in series [6], 23 ± 2 µM.
